From US9169254B2, “Spiroimidazolone derivative” (Chugai Seiyaku Kabushiki Kaisha, priority 2009, dated 2015) come the findings set out here.

In this assay the target is T1, human PTH1 receptor (Homo sapiens, UniProt Q03431).
T1 sequence (Q03431 27-593): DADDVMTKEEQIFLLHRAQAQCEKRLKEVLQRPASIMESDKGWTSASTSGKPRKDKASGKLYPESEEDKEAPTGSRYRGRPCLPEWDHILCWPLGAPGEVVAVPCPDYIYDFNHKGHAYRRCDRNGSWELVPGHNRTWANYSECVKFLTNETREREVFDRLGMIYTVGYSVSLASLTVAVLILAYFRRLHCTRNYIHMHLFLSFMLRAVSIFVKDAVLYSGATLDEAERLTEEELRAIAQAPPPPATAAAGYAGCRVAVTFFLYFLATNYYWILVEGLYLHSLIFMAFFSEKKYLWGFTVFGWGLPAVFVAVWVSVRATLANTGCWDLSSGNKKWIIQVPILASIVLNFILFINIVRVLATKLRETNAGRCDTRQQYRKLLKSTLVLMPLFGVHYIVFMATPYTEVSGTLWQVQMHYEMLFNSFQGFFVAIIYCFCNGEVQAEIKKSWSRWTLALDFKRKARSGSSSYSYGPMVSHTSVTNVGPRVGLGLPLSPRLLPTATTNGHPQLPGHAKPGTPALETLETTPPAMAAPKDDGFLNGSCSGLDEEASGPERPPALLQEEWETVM
In words: In vitro cAMP signal activity in HKRK-B7 cells (LLC-PK1 cells overexpressing the human PTH1 receptor). Type of assay: cell-based. The conditions noted are these: HKRK-B7 cells; compound at 1×10^−3 M; cAMP produced as percentage of that produced by hPTH(1-34) at 100 nM.
Regarding `Cc1ccc(C(=O)N(C)CCO)cc1CCS(=O)(=O)N1CCC2(CC1)N=C(c1cccc(OC(F)(F)F)c1)NC2=O` [Compound 413, N-(2-hydroxy-ethyl)-4,N-dimethyl-3-{2-[4-oxo-2-(3-trifluoromethoxy-phenyl)-1,3,8-triaza-spiro[4.5]dec-1-ene-8-sulfonyl]-ethyl}-benzamide], the “cAMP production activity (%)” value is given as 56%.

For the compound `Cc1ccc(C(=O)N2CCN(C)CC2)cc1CCS(=O)(=O)N1CCC2(CC1)N=C(c1cccc(OC(F)(F)F)c1)NC2=O` [Compound 414, 8-{2-[2-methyl-5-(4-methyl-piperazine-1-carbonyl)-phenyl]-ethanesulfonyl}-2-(3-trifluoromethoxy-phenyl)-1,3,8-triaza-spiro[4.5]dec-1-en-4-one], the “cAMP production activity (%)” value came to 69%.

Turning to `CNC(=O)c1ccc(C)c(CCS(=O)(=O)N2CCC3(CC2)N=C(c2cccc(OC(F)(F)F)c2)NC3=O)c1` [Compound 415, 4,N-dimethyl-3-{2-[4-oxo-2-(3-trifluoromethoxy-phenyl)-1,3,8-triaza-spiro[4.5]dec-1-ene-8-sulfonyl]-ethyl}-benzamide], the “cAMP production activity (%)” value turned out to be 56%.

With `Cc1cc(C(=O)N2CCN(CCO)CC2)ccc1CCS(=O)(=O)N1CCC2(CC1)N=C(c1cccc(OC(F)(F)F)c1)NC2=O` [Compound 416, 8-(2-{4-[4-(2-Hydroxy-ethyl)-piperazine-1-carbonyl]-2-methyl-phenyl}-ethanesulfonyl)-2-(3-trifluoromethoxy-phenyl)-1,3,8-triaza-spiro[4.5]dec-1-en-4-one], the “cAMP production activity (%)” value stood at 66%.

In the case of `Cc1cc(C(=O)N2CCSC2)ccc1CCS(=O)(=O)N1CCC2(CC1)N=C(c1cccc(OC(F)(F)F)c1)NC2=O` [Compound 417, 8-{2-[2-methyl-4-(thiazolidine-3-carbonyl)-phenyl]-ethanesulfonyl}-2-(3-trifluoromethoxy-phenyl)-1,3,8-triaza-spiro[4.5]dec-1-en-4-one], the “cAMP production activity (%)” value stood at 97%.

In the case of `Cc1cc(C(=O)N(C)C)c(F)cc1CCS(=O)(=O)N1CCC2(CC1)N=C(c1cccc(C(F)(F)F)c1)NC2=O` [Compound 418, 2-Fluoro-5,N,N-trimethyl-4-{2-[4-oxo-2-(3-trifluoromethyl-phenyl)-1,3,8-triaza-spiro[4.5]dec-1-ene-8-sulfonyl]-ethyl}-benzamide], the “cAMP production activity (%)” value amounted to 84%.

Turning to `Cc1cc(C(=O)N2CCC(O)CC2)c(F)cc1CCS(=O)(=O)N1CCC2(CC1)N=C(c1cccc(C(F)(F)F)c1)NC2=O` [Compound 419, 8-{2-[5-fluoro-4-(4-hydroxy-piperidine-1-carbonyl)-2-methyl-phenyl]-ethanesulfonyl}-2-(3-trifluoromethyl-phenyl)-1,3,8-triaza-spiro[4.5]dec-1-en-4-one], the “cAMP production activity (%)” value was found to be 96%.

Consider `O=C(Cc1c[nH]c2cccc(CCS(=O)(=O)N3CCC4(CC3)N=C(C3CCCCC3)NC4=O)c12)NCc1ccccc1` [Compound 420, N-Benzyl-2-{4-[2-(2-cyclohexyl-4-oxo-1,3,8-triaza-spiro[4.5]dec-1-ene-8-sulfonyl)-ethyl]-1H-indol-3-yl}-acetamide], for which the “cAMP production activity (%)” value was determined as 31%.

Take `CNC(=O)c1ccccc1CCS(=O)(=O)N1CCC2(CC1)N=C(C1CCCCC1)NC2=O` [Compound 421, 2-[2-(2-Cyclohexyl-4-oxo-1,3,8-triaza-spiro[4.5]dec-1-ene-8-sulfonyl)-ethyl]-N-methyl-benzamide]: the “cAMP production activity (%)” value stood at 68%.

As for `O=C(Nc1ccncc1)c1cccc(CCS(=O)(=O)N2CCC3(CC2)N=C(C2CCCCC2)NC3=O)c1` [Compound 422, 3-[2-(2-cyclohexyl-4-oxo-1,3,8-triaza-spiro[4.5]dec-1-ene-8-sulfonyl)-ethyl]-N-pyridin-4-yl-benzamide], the “cAMP production activity (%)” value came out at 14%.

Turning to `CC(C)(C)CC(=O)N1CCCC(C2=NC3(CCN(S(=O)(=O)c4cccc(Cl)c4)CC3)C(=O)N2)C1` (stereo not shown) [Compound 423, 8-(3-Chloro-benzenesulfonyl)-2-[1-(3,3-dimethyl-butyryl)-piperidin-3-yl]-1,3,8-triaza-spiro[4.5]dec-1-en-4-one], the “cAMP production activity (%)” value was found to be 42%.

In the case of `O=C(CO)N1CCCC(C2=NC3(CCN(S(=O)(=O)c4cccc(Cl)c4)CC3)C(=O)N2)C1` (stereo not shown) [Compound 424, 8-(3-chloro-benzenesulfonyl)-2-[1-(2-hydroxy-acetyl)-piperidin-3-yl]-1,3,8-triaza-spiro[4.5]dec-1-en-4-one], the “cAMP production activity (%)” value is on record as 2.5%.

`O=C(c1ccc(Cl)cc1)N1CCCC(C2=NC3(CCN(S(=O)(=O)c4cccc(Cl)c4)CC3)C(=O)N2)C1` (stereo not shown) [Compound 425, 8-(3-Chloro-benzenesulfonyl)-2-[1-(4-chloro-benzoyl)-piperidin-3-yl]-1,3,8-triaza-spiro[4.5]dec-1-en-4-one]: the “cAMP production activity (%)” value came to 17%.

Consider `COc1cccc(C(=O)N2CCCC(C3=NC4(CCN(S(=O)(=O)c5cccc(Cl)c5)CC4)C(=O)N3)C2)c1` (stereo not shown) [Compound 426, 8-(3-chloro-benzenesulfonyl)-2-[1-(3-methoxy-benzoyl)-piperidin-3-yl]-1,3,8-triaza-spiro[4.5]dec-1-en-4-one], for which the “cAMP production activity (%)” value turned out to be 16%.

Regarding `O=C(c1ccc2[nH]ccc2c1)N1CCCC(C2=NC3(CCN(S(=O)(=O)CCc4cccc5ccccc45)CC3)C(=O)N2)C1` (stereo not shown) [Compound 428, 2-[1-(1H-Indol-5-carbonyl)-piperidin-3-yl]-8-(2-naphthalen-1-yl-ethanesulfonyl)-1,3,8-triaza-spiro[4.5]dec-1-en-4-one], the “cAMP production activity (%)” value was found to be 8.8%.

`O=C(CCc1ccccc1)N1CCCC(C2=NC3(CCN(S(=O)(=O)CCc4cccc5ccccc45)CC3)C(=O)N2)C1` (stereo not shown) [Compound 429, 8-(2-naphthalen-1-yl-ethanesulfonyl)-2-[1-(3-phenyl-propionyl)-piperidin-3-yl]-1,3,8-triaza-spiro[4.5]dec-1-en-4-one]: the “cAMP production activity (%)” value is listed as 38%.

As to `O=C(C1CCc2ccccc2C1)N1CCCC(C2=NC3(CCN(S(=O)(=O)CCc4cccc5ccccc45)CC3)C(=O)N2)C1` (stereo not shown) [Compound 430, 8-(2-naphthalen-1-yl-ethanesulfonyl)-2-[1-(1,2,3,4-tetrahydro-naphthalene-2-carbonyl)-piperidin-3-yl]-1,3,8-triaza-spiro[4.5]dec-1-en-4-one], the “cAMP production activity (%)” value is 23%.

For `O=C(c1ccc2ncccc2c1)N1CCCC(C2=NC3(CCN(S(=O)(=O)CCc4cccc5ccccc45)CC3)C(=O)N2)C1` (stereo not shown) [Compound 431, 8-(2-naphthalen-1-yl-ethanesulfonyl)-2-[1-(quinoline-6-carbonyl)-piperidin-3-yl]-1,3,8-triaza-spiro[4.5]dec-1-en-4-one], the “cAMP production activity (%)” value is 14%.

As to `O=C(Cc1cnc[nH]1)N1CCCC(C2=NC3(CCN(S(=O)(=O)CCc4cccc5ccccc45)CC3)C(=O)N2)C1` (stereo not shown) [Compound 432, 2-[1-(2-3H-imidazol-4-yl-acetyl)-piperidin-3-yl]-8-(2-naphthalen-1-yl-ethanesulfonyl)-1,3,8-triaza-spiro[4.5]dec-1-en-4-one], the “cAMP production activity (%)” value is listed as 5.1%.

Regarding `Cc1nc(CC(=O)N2CCCC(C3=NC4(CCN(S(=O)(=O)CCc5cccc6ccccc56)CC4)C(=O)N3)C2)c(C)s1` (stereo not shown) [Compound 433, 2-{1-[2-(2,5-dimethyl-thiazol-4-yl)-acetyl]-piperidin-3-yl}-8-(2-naphthalen-1-yl-ethanesulfonyl)-1,3,8-triaza-spiro[4.5]dec-1-en-4-one], the “cAMP production activity (%)” value is 18%.

`Cc1oc(-c2ccccc2)nc1CC(=O)N1CCCC(C2=NC3(CCN(S(=O)(=O)CCc4cccc5ccccc45)CC3)C(=O)N2)C1` (stereo not shown) [Compound 434, 2-{1-[2-(5-methyl-2-phenyl-oxazol-4-yl)-acetyl]-piperidin-3-yl}-8-(2-naphthalen-1-yl-ethanesulfonyl)-1,3,8-triaza-spiro[4.5]dec-1-en-4-one]: the “cAMP production activity (%)” value worked out at 25%.

With `O=C(Cc1ccccn1)N1CCCC(C2=NC3(CCN(S(=O)(=O)CCc4cccc5ccccc45)CC3)C(=O)N2)C1` (stereo not shown) [Compound 435, 8-(2-naphthalen-1-yl-ethanesulfonyl)-2-[1-(2-pyridin-2-yl-acetyl)-piperidin-3-yl]-1,3,8-triaza-spiro[4.5]dec-1-en-4-one], the “cAMP production activity (%)” value came to 17%.

With `O=C(CCCOCc1ccccc1)N1CCCC(C2=NC3(CCN(S(=O)(=O)CCc4cccc5ccccc45)CC3)C(=O)N2)C1` (stereo not shown) [Compound 436, 2-[1-(4-benzyloxy-butyryl)-piperidin-3-yl]-8-(2-naphthalen-1-yl-ethanesulfonyl)-1,3,8-triaza-spiro[4.5]dec-1-en-4-one], the “cAMP production activity (%)” value was found to be 28%.

With `O=C(CCCc1ccccc1)N1CCCC(C2=NC3(CCN(S(=O)(=O)CCc4cccc5ccccc45)CC3)C(=O)N2)C1` (stereo not shown) [Compound 437, 8-(2-naphthalen-1-yl-ethanesulfonyl)-2-[1-(4-phenyl-butyryl)-piperidin-3-yl]-1,3,8-triaza-spiro[4.5]dec-1-en-4-one], the “cAMP production activity (%)” value turned out to be 45%.

As to `O=C(Cc1ccncc1)N1CCCC(C2=NC3(CCN(S(=O)(=O)CCc4cccc5ccccc45)CC3)C(=O)N2)C1` (stereo not shown) [Compound 438, 8-(2-naphthalen-1-yl-ethanesulfonyl)-2-[1-(2-pyridin-4-yl-acetyl)-piperidin-3-yl]-1,3,8-triaza-spiro[4.5]dec-1-en-4-one], the “cAMP production activity (%)” value is recorded as 14%.
